The target of one data set is T1, Interstitial collagenase (Homo sapiens, UniProt P03956).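 Note: MMP-1 enzyme inhibition assay using a peptide substrate; in other assays of this panel Not Active means under 50% inhibition at 10 µM.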
T1 sequence (P03956 whole entry): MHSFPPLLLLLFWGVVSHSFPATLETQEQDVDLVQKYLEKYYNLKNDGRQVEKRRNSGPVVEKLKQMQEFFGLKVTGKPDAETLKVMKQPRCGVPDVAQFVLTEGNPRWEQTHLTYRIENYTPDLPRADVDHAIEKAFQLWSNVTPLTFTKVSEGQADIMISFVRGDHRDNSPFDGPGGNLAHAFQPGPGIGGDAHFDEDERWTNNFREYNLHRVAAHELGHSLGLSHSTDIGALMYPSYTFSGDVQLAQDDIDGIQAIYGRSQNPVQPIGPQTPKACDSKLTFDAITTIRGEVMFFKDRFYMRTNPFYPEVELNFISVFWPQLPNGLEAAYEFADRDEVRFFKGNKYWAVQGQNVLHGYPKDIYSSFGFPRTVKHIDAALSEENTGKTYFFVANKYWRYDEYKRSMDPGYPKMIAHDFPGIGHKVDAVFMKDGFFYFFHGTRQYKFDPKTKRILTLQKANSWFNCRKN
Kind of data set: biochemical. The class given is tissue-based, Rheumatoid synovial fibroblasts.
Settings: not given
Chain of C-C chemokine receptor type 2 (P41597 whole entry): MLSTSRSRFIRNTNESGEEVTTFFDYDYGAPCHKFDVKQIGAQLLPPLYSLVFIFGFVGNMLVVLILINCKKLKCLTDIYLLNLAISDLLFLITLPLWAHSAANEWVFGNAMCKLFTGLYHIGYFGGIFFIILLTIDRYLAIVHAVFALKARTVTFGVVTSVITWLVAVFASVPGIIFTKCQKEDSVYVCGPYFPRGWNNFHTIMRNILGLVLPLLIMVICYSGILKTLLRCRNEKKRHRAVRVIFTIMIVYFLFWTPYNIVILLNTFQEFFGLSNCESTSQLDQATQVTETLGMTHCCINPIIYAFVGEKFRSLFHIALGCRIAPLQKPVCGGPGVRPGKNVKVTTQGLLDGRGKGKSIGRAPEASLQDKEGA
For the compound `CC(C)(C)NC(=O)[C@@H]1C[C@@H]2CCCC[C@@H]2CN1C[C@@H](O)[C@H](Cc1ccccc1)NC(=O)[C@H](CC(N)=O)NC(=O)c1ccc2ccccc2n1`, the concentration for half-maximal inhibition (IC50) result is “Not Active”.

On to `CC(=O)[C@@]1(O)CC[C@H]2[C@@H]3C[C@H](C)C4=CC(=O)CC[C@]4(C)[C@H]3CC[C@@]21C`, for which the concentration for half-maximal inhibition (IC50) result is on record as “Not Active”.

In the case of `CC(C)N1CCN(c2ccc(OCC3COC(Cn4cncn4)(c4ccc(Cl)cc4Cl)O3)cc2)CC1` (stereo not drawn) [TERCONAZOLE], the concentration for half-maximal inhibition (IC50) result was “Not Active”.

Regarding `Nc1nc2nc[nH]c2c(=S)[nH]1` [THIOGUANINE], the 50% inhibitory concentration (IC50) entry is “Not Active”.

For `COc1nc(C)nc(Cl)c1NC1=NCCN1` [MOXONIDINE], the IC50 entry is “Not Active”.

In the case of `C[C@@H]1CN(c2c(F)c(N)c3c(=O)c(C(=O)O)cn(C4CC4)c3c2F)C[C@H](C)N1` [SPARFLOXACIN], the IC50 entry was “Not Active”.

As to `N[C@@H](Cc1ccc(O)c(O)c1)C(=O)O` [LEVODOPA], the IC50 entry is reported as “Not Active”.

The next data set deals with 5-hydroxytryptamine receptor 2B (Homo sapiens, UniProt P41595).
Chain of 5-hydroxytryptamine receptor 2B (P41595 whole entry): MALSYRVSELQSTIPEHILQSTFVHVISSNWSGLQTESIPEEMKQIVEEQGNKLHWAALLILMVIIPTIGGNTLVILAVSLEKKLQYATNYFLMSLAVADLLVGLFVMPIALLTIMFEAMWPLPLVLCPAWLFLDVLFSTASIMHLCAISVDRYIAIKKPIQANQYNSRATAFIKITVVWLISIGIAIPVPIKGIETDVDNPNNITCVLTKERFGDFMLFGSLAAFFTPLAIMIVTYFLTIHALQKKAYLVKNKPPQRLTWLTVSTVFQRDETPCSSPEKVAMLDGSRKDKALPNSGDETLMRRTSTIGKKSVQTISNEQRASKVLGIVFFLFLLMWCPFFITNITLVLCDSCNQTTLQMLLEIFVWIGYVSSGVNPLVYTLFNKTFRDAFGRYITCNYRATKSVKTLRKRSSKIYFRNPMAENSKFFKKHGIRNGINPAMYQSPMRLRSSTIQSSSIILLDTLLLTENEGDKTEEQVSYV
Test: not given
The format is cell membranes, CHO-K1, Membrane. Conditions: cho-k1.
For the compound `CC(C)(C)NC(=O)[C@@H]1C[C@@H]2CCCC[C@@H]2CN1C[C@@H](O)[C@H](Cc1ccccc1)NC(=O)[C@H](CC(N)=O)NC(=O)c1ccc2ccccc2n1`, the 50% inhibitory concentration (IC50) result is reported as “Not Active”.

Turning to `CC(=O)[C@@]1(O)CC[C@H]2[C@@H]3C[C@H](C)C4=CC(=O)CC[C@]4(C)[C@H]3CC[C@@]21C`, the IC50 entry is given as “Not Active”.

In the case of `CC(C)N1CCN(c2ccc(OCC3COC(Cn4cncn4)(c4ccc(Cl)cc4Cl)O3)cc2)CC1` (stereo not drawn) [TERCONAZOLE], the concentration for half-maximal inhibition (IC50) result is recorded as “Not Active”.

`Nc1nc2nc[nH]c2c(=S)[nH]1` [THIOGUANINE]: the IC50 result was “Not Active”.

`COc1nc(C)nc(Cl)c1NC1=NCCN1` [MOXONIDINE]: the half-inhibitory concentration (IC50) entry is on record as “Not Active”.

`C[C@@H]1CN(c2c(F)c(N)c3c(=O)c(C(=O)O)cn(C4CC4)c3c2F)C[C@H](C)N1` [SPARFLOXACIN]: the half-inhibitory concentration (IC50) result is given as “Not Active”.

Consider `N[C@@H](Cc1ccc(O)c(O)c1)C(=O)O` [LEVODOPA], for which the IC50 entry is given as “Not Active”.

For a further data set, the target named is Cytochrome P450 2E1 (Homo sapiens, UniProt P05181). Note: in other assays of this panel Not Active means under 50% inhibition at 10 µM.
Chain of Cytochrome P450 2E1 (P05181 whole entry): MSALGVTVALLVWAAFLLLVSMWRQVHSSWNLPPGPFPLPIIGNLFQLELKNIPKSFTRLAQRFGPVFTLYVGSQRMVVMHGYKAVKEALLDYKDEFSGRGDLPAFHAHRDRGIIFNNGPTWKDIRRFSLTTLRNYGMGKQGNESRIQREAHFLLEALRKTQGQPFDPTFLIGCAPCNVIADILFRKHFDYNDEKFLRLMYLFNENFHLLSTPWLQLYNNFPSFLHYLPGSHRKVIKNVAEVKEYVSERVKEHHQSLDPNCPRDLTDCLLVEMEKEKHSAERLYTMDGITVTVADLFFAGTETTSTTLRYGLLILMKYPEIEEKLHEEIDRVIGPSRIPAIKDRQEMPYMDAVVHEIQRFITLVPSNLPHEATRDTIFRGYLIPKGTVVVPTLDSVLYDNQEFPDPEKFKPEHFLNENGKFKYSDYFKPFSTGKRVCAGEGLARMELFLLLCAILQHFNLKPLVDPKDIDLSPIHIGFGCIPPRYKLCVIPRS
Test: not given
Conditions: bti-tn-5b1-4.
As for `CC(C)(C)NC(=O)[C@@H]1C[C@@H]2CCCC[C@@H]2CN1C[C@@H](O)[C@H](Cc1ccccc1)NC(=O)[C@H](CC(N)=O)NC(=O)c1ccc2ccccc2n1`, the half-inhibitory concentration (IC50) result is “Not Active” and the inhibition constant Ki result is “Not Active”.

As for `CC(=O)[C@@]1(O)CC[C@H]2[C@@H]3C[C@H](C)C4=CC(=O)CC[C@]4(C)[C@H]3CC[C@@]21C`, the IC50 entry was “Not Active” and the Ki result is “Not Active”.

Take `CC(C)N1CCN(c2ccc(OCC3COC(Cn4cncn4)(c4ccc(Cl)cc4Cl)O3)cc2)CC1` (stereo not drawn) [TERCONAZOLE]: the IC50 result is recorded as “Not Active” and the inhibition constant (Ki) entry is recorded as “Not Active”.

Regarding `Nc1nc2nc[nH]c2c(=S)[nH]1` [THIOGUANINE], the IC50 result is reported as “Not Active” and the Ki entry is listed as “Not Active”.

As to `COc1nc(C)nc(Cl)c1NC1=NCCN1` [MOXONIDINE], the IC50 entry was “Not Active” and the inhibition constant (Ki) result is “Not Active”.

Turning to `C[C@@H]1CN(c2c(F)c(N)c3c(=O)c(C(=O)O)cn(C4CC4)c3c2F)C[C@H](C)N1` [SPARFLOXACIN], the IC50 entry was “Not Active” and the inhibitory constant (Ki) result is on record as “Not Active”.

Consider `N[C@@H](Cc1ccc(O)c(O)c1)C(=O)O` [LEVODOPA], for which the half-inhibitory concentration (IC50) result was “Not Active” and the Ki result was “Not Active”.

The target in another data set is T2, 5-hydroxytryptamine receptor 1A (Rattus norvegicus, UniProt P19327). Note: in other assays of this panel Not Active means under 50% inhibition at 10 µM.
T2 sequence (P19327 whole entry): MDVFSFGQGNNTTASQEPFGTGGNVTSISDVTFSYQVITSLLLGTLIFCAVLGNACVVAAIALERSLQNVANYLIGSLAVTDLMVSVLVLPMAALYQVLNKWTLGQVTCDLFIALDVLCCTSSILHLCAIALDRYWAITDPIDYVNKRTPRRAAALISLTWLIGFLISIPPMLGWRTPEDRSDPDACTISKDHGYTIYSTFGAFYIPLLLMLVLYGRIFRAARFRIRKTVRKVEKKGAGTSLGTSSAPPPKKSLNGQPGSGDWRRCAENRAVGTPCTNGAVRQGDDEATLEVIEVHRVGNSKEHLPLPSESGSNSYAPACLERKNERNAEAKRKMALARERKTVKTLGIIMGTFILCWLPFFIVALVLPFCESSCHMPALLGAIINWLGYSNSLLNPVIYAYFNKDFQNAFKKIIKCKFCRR
Test: not given
The class given is cell membranes, CHO-K1, Membrane. Conditions: cho-k1.
Turning to `CC(=O)[C@@]1(O)CC[C@H]2[C@@H]3C[C@H](C)C4=CC(=O)CC[C@]4(C)[C@H]3CC[C@@]21C`, the concentration for half-maximal inhibition (IC50) result was “Not Active”.

With `CC(C)N1CCN(c2ccc(OCC3COC(Cn4cncn4)(c4ccc(Cl)cc4Cl)O3)cc2)CC1` (stereo not drawn) [TERCONAZOLE], the 50% inhibitory concentration (IC50) result is reported as “Not Active”.

Consider `Nc1nc2nc[nH]c2c(=S)[nH]1` [THIOGUANINE], for which the IC50 entry is “Not Active”.

`C[C@@H]1CN(c2c(F)c(N)c3c(=O)c(C(=O)O)cn(C4CC4)c3c2F)C[C@H](C)N1` [SPARFLOXACIN]: the half-inhibitory concentration (IC50) entry is reported as “Not Active”.

`N[C@@H](Cc1ccc(O)c(O)c1)C(=O)O` [LEVODOPA]: the IC50 result is “Not Active”.

Staying with this data set, now noted: read-out: IC50.
As for `CC(C)(C)NC(=O)[C@@H]1C[C@@H]2CCCC[C@@H]2CN1C[C@@H](O)[C@H](Cc1ccccc1)NC(=O)[C@H](CC(N)=O)NC(=O)c1ccc2ccccc2n1`, the concentration for half-maximal inhibition (IC50) was 4270 nM.

With `COc1nc(C)nc(Cl)c1NC1=NCCN1` [MOXONIDINE], the half-maximal inhibitory concentration (IC50) is 702 nM.

Still in this data set, the particulars now being: read-out: Ki.
Take `CC(C)(C)NC(=O)[C@@H]1C[C@@H]2CCCC[C@@H]2CN1C[C@@H](O)[C@H](Cc1ccccc1)NC(=O)[C@H](CC(N)=O)NC(=O)c1ccc2ccccc2n1`: the inhibitory constant (Ki) was 2440 nM.

Take `COc1nc(C)nc(Cl)c1NC1=NCCN1` [MOXONIDINE]: the inhibitory constant (Ki) was determined as 401 nM.

Another data set addresses C-C chemokine receptor type 2 (Homo sapiens, UniProt P41597).
Test: not given
The class given is cell membranes, CHO-K1, Membrane. Conditions: cho-k1.
Consider `CC(C)(C)NC(=O)[C@@H]1C[C@@H]2CCCC[C@@H]2CN1C[C@@H](O)[C@H](Cc1ccccc1)NC(=O)[C@H](CC(N)=O)NC(=O)c1ccc2ccccc2n1`, for which the IC50 result was “Not Active”.

`CC(=O)[C@@]1(O)CC[C@H]2[C@@H]3C[C@H](C)C4=CC(=O)CC[C@]4(C)[C@H]3CC[C@@]21C`: the IC50 result is “Not Active”.

`CC(C)N1CCN(c2ccc(OCC3COC(Cn4cncn4)(c4ccc(Cl)cc4Cl)O3)cc2)CC1` (stereo not drawn) [TERCONAZOLE]: the IC50 entry is recorded as “Not Active”.

With `Nc1nc2nc[nH]c2c(=S)[nH]1` [THIOGUANINE], the IC50 result is “Not Active”.

In the case of `COc1nc(C)nc(Cl)c1NC1=NCCN1` [MOXONIDINE], the IC50 result was “Not Active”.

For `C[C@@H]1CN(c2c(F)c(N)c3c(=O)c(C(=O)O)cn(C4CC4)c3c2F)C[C@H](C)N1` [SPARFLOXACIN], the IC50 entry is on record as “Not Active”.

Take `N[C@@H](Cc1ccc(O)c(O)c1)C(=O)O` [LEVODOPA]: the IC50 result is recorded as “Not Active”.

Test system in a further data set: not listed separately
Kind of data set: DRUGMATRIX: Glutamate, AMPA radioligand binding (ligand: [3H] AMPA). The class given is cell membranes, Rattus norvegicus, Wistar, Cerebral cortex, Membrane. The conditions noted are these: Not Active = under 50% inhibition at 10 µM.
Regarding `CC(C)(C)NC(=O)[C@@H]1C[C@@H]2CCCC[C@@H]2CN1C[C@@H](O)[C@H](Cc1ccccc1)NC(=O)[C@H](CC(N)=O)NC(=O)c1ccc2ccccc2n1`, the IC50 entry is on record as “Not Active” and the inhibition constant Ki result is listed as “Not Active”.

As to `CC(=O)[C@@]1(O)CC[C@H]2[C@@H]3C[C@H](C)C4=CC(=O)CC[C@]4(C)[C@H]3CC[C@@]21C`, the concentration for half-maximal inhibition (IC50) entry is “Not Active” and the Ki entry is reported as “Not Active”.

Turning to `CC(C)N1CCN(c2ccc(OCC3COC(Cn4cncn4)(c4ccc(Cl)cc4Cl)O3)cc2)CC1` (stereo not drawn) [TERCONAZOLE], the half-inhibitory concentration (IC50) result is recorded as “Not Active” and the Ki entry is given as “Not Active”.

Take `Nc1nc2nc[nH]c2c(=S)[nH]1` [THIOGUANINE]: the IC50 result is reported as “Not Active” and the inhibition constant (Ki) entry is “Not Active”.

Consider `COc1nc(C)nc(Cl)c1NC1=NCCN1` [MOXONIDINE], for which the IC50 entry is given as “Not Active” and the Ki result was “Not Active”.

For `C[C@@H]1CN(c2c(F)c(N)c3c(=O)c(C(=O)O)cn(C4CC4)c3c2F)C[C@H](C)N1` [SPARFLOXACIN], the half-inhibitory concentration (IC50) result is “Not Active” and the Ki entry is recorded as “Not Active”.

In the case of `N[C@@H](Cc1ccc(O)c(O)c1)C(=O)O` [LEVODOPA], the IC50 entry is reported as “Not Active” and the inhibitory constant (Ki) result is reported as “Not Active”.

As usually defined, the IC50 is the concentration that gives 50% inhibition. The term Ki denotes a dissociation constant, usually derived from enzyme kinetics or from competition with a known ligand.

Source of the values: ChEMBL document CHEMBL1909046, “DrugMatrix in vitro pharmacology data”.
